Experimental data reported in patent publication US20170253607A1, “LONG-ACTING HIV PROTEASE INHIBITOR” (Shionogi & Co., Ltd., priority 2014, published 2017).

Assays:
[1] = biological target: HIV-1 PR (Human immunodeficiency virus type 1 group M subtype B, UniProt P04585); assay: HIV-protease inhibitory activity assay (FRET peptide substrate); assay type: biochemical; settings: Test Example 1
How it was run: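 Compounds were preincubated with HIV-1 PR (0.83 ng) at room temperature in pH 4.8 NaAc buffer (0.5 M NaCl, EDTA, DTT, Tween 20), then HiLyte Fluor 488/QXL 520 FRET peptide (2 μmol/L final) was added for 60 min. Fluorescence was read at 485/535 nm, and IC50 was fitted by four-parameter logistic regression.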

[2] = Evaluation of total body clearance (CLtot), intravenous administration; assay type: in vivo, Sprague-Dawley (SD); settings: rat (SD), intravenous administration 0.5-10 mg/kg; CLtot = dose/AUC
Procedure: Dose: Intravenous administration with designated doses was selected. (Doses were changed depending on compounds.) • 0.5-10 mg/kg (n=2-3) Preparation of dosing formulation: The dosing solution was prepared by dissolving in an adequate solvent. Administration method: The dosing solution was injected into the tail vein by a syringe with a needle Blood sampling: The blood was collected at the scheduled time and obtained the plasma. Plasma concentrations of the compound were measured by LC/MS/MS. Statistical analysis: Area under the plasma concentration-time curve (AUC) of the compound was calculated by pharmacokinetic analysis software, WinNonlin™ and CLtot was calculated by dividing the dose by AUC.

SMILES | IC50 [1] [nM] | rat_CLt [2] [mL/min/kg]
COc1ccc(S(=O)(=O)N(CC(C)C)CC(O)C(Cc2ccc(NCc3cc(C)ccc3-c3sc4c(c3C(=O)O)CC(C)(C)CC4)cc2)NC(=O)OC2COC3(C)OCCC23)cc1 (stereo not shown) [Compound I-545] | 1.85 | 1.15
COc1ccc(S(=O)(=O)N(CC(C)C)CC(O)C(Cc2ccc(NCc3cccc(C)c3-c3sc4c(c3C(=O)O)CC(C)(C)CC4)cc2)NC(=O)OC2COC3(C)OCCC23)cc1 (stereo not shown) [Compound I-598] | 2.12 | 0.532
COc1ccc(S(=O)(=O)N(CC(C)C)CC(O)C(Cc2ccc(NCc3ccc(C)c(-c4sc5c(c4C(=O)O)CC(C)(C)CC5)c3)cc2)NC(=O)OC2COC3(C)OCCC23)cc1 (stereo not shown) [Compound I-532] | 4.14 | 0.551
COc1ccc(S(=O)(=O)N(CC(C)C)CC(O)C(Cc2ccc(NCc3cc4ccsc4nc3-c3sc4c(c3C(=O)O)CC(C)(C)CC4)cc2)NC(=O)OC2COC3(C)OCCC23)cc1 (stereo not shown) [Compound I-649] | 2.25 | 0.622
COc1ccc(S(=O)(=O)N(CC(C)C)CC(O)C(Cc2ccc(NCc3ccc(-c4sc5c(c4C(=O)O)CC(C)(C)CC5)cc3O)cc2)NC(=O)OC2COC3(C)OCCC23)cc1 (stereo not shown) [Compound I-555] | 1.68 | 5.98
COc1ccc(S(=O)(=O)N(CC(C)C)CC(O)C(Cc2ccc(N(C)Cc3cc(-c4sc5c(c4C(=O)O)CC(C)(C)CC5)co3)cc2)NC(=O)OC2COC3(C)OCCC23)cc1 (stereo not shown) [Compound I-448] | 2.31 | 5.28
CC1(C)CCc2sc(NC(=O)c3ccccc3CNc3ccc(CC(NC(=O)OC4COC5OCCC45)C(O)CN(CC4CCCC4)S(=O)(=O)c4ccc5c(c4)OCO5)cc3)c(C(=O)O)c2C1 (stereo not shown) [Compound I-858] | 4.23 | 0.142
COc1ccc(S(=O)(=O)N(CC(C)C)CC(O)C(Cc2ccc(NCc3cc(N4CCOCC4)ccc3-c3sc4c(c3C(=O)O)CC(C)(C)CC4)cc2)NC(=O)OC2COC3(C)OCCC23)cc1 (stereo not shown) [Compound I-679] | 2.82 | 1.65
COc1ccc(S(=O)(=O)N(CC(C)C)CC(O)C(Cc2ccc(N(C)Cc3cccc(C)c3-c3sc4c(c3C(=O)O)CC(C)(C)CC4)cc2)NC(=O)OC2COC3(C)OCCC23)cc1 (stereo not shown) [Compound I-599] | 2.46 | 0.479
COc1ccc(S(=O)(=O)N(CC(C)C)CC(O)C(Cc2ccc(N(C)Cc3cc(N(C)C)ccc3-c3sc4c(c3C(=O)O)CC(C)(C)CC4)cc2)NC(=O)OC2COC3(C)OCCC23)cc1 (stereo not shown) [Compound I-538] | 2.86 | 0.598
COc1ccc(S(=O)(=O)N(CC(C)C)CC(O)C(Cc2ccc(NCc3ccc(C(=O)NCc4ccc(F)cc4)cc3-c3sc4c(c3C(=O)O)CC(C)(C)CC4)cc2)NC(=O)OC2COC3(C)OCCC23)cc1 (stereo not shown) [Compound I-481] | 3.72 | 3.29
COc1ccc(S(=O)(=O)N(CC(C)C)C[C@@H](O)[C@H](Cc2ccc(NCc3cc(-c4ccc(N(C)C)cc4)ccc3-c3sc4c(c3C(=O)O)CC(C)(C)CC4)cc2)NC(=O)O[C@H]2CO[C@@]3(C)OCC[C@@H]23)cc1 [Compound I-720] | 2.42 | 0.0677
COc1ccc(S(=O)(=O)N(CC2CCC2)CC(O)C(Cc2ccc(NCc3cc(C(F)(F)F)ccc3-c3sc4c(c3C(=O)O)CC(C)(C)CC4)cc2)NC(=O)OC2COC3OCCC23)cc1 (stereo not shown) [Compound I-869] | 6.45 | 1.15
COc1ccc(S(=O)(=O)N(CC(C)C)CC(O)C(Cc2ccc(N(CCCc3sc4c(c3C(=O)O)CC(C)(C)CC4)Cc3ccccc3)cc2)NC(=O)OC2COC3(C)OCCC23)cc1 (stereo not shown) [Compound I-371] | 10.5 | 4.69
COc1ccc(S(=O)(=O)N(CC2CCCC2)CC(O)C(Cc2ccc(NCc3ccccc3-c3sc4c(c3C(=O)O)CC(C)(C)CC4)cc2)NC(=O)OC2COC3(C)OCCC23)cc1 (stereo not shown) [Compound I-483] | 2.75 | 2.41
COc1ccc(S(=O)(=O)N(CC(C)C)CC(O)C(Cc2ccc(N3CCC(Cc4ccccc4-c4sc5c(c4C(=O)O)CC(C)(C)CC5)CC3)cc2)NC(=O)OC2COC3(C)OCCC23)cc1 (stereo not shown) [Compound I-666] | 4.7 | 0.668

SMILES | IC50 [1] [nM] | rat_CLt [2] [mL/min/kg]
COc1ccc(S(=O)(=O)N(CC(C)C)CC(O)C(Cc2ccc(OCc3ccccc3NC(=O)c3sc4c(c3C(=O)O)CC(C)(C)CC4)cc2)NC(=O)OC2COC3(C)OCCC23)cc1 (stereo not shown) [Compound I-214] | 1.89 | 0.297
COc1ccc(S(=O)(=O)N(CC(C)C)CC(O)C(Cc2ccc(N(C)Cc3ccc(F)cc3-c3sc4c(c3C(=O)O)CC(C)(C)CC4)cc2)NC(=O)OC2COC3(C)OCCC23)cc1 (stereo not shown) [Compound I-491] | 1.92 | 3.32
CC1(C)CCc2sc(NC(=O)c3ccccc3CNc3ccc(CC(NC(=O)OC4COC5(C)OCCC45)C(O)CN(CC4CCCC4)S(=O)(=O)c4ccc5c(c4)OCO5)cc3)c(C(=O)O)c2C1 (stereo not shown) [Compound I-600] | 5.07 | 0.104
COc1ccc(S(=O)(=O)N(CC(C)C)CC(O)C(Cc2ccc(NCc3cc(OC)c(OC)cc3C(=O)Nc3sc4c(c3C(=O)O)CC(C)(C)CC4)cc2)NC(=O)OC2COC3(C)OCCC23)cc1 (stereo not shown) [Compound I-541] | 2.34 | 0.195
COc1ccc(S(=O)(=O)N(CC(C)C)CC(O)C(Cc2ccc(NCc3cc([N+](=O)[O-])ccc3-c3sc4c(c3C(=O)O)CC(C)(C)CC4)cc2)NC(=O)OC2COC3(C)OCCC23)cc1 (stereo not shown) [Compound I-567] | 3.12 | 2.81
COc1ccc(S(=O)(=O)N(CC(C)C)CC(O)C(Cc2ccc(NCc3ccc4scc(C(=O)Nc5sc6c(c5C(=O)O)CC(C)(C)CC6)c4c3)cc2)NC(=O)OC2COC3(C)OCCC23)cc1 (stereo not shown) [Compound I-440] | 4.5 | 0.871
COc1ccc(S(=O)(=O)N(CC(C)C)CC(O)C(Cc2ccc(NCC3CCCC3c3sc4c(c3C(=O)O)CC(C)(C)CC4)cc2)NC(=O)OC2COC3(C)OCCC23)cc1 (stereo not shown) [Compound I-410] | 1.99 | 1.07
COc1ccc(S(=O)(=O)N(CC(C)C)CC(O)C(Cc2ccc(N(C)Cc3ccc(-c4sc5c(c4C(=O)O)CC(C)(C)CC5)cn3)cc2)NC(=O)OC2COC3(C)OCCC23)cc1 (stereo not shown) [Compound I-449] | 2.19 | 11.1
COc1ccc(S(=O)(=O)N(CC(C)C)CC(O)C(Cc2ccc(NCc3nc(N4CCCC4)sc3-c3sc4c(c3C(=O)O)CC(C)(C)CC4)cc2)NC(=O)OC2COC3(C)OCCC23)cc1 (stereo not shown) [Compound I-607] | 1.8 | 0.797
COc1ccc(S(=O)(=O)N(CC(C)C)CC(O)C(Cc2ccc(N(C)Cc3ccc(-c4sc5c(c4C(=O)O)CC(C)(C)CC5)cc3)cc2)NC(=O)OC2COC3(C)OCCC23)cc1 (stereo not shown) [Compound I-450] | 2.68 | 3.7
CC(C)CN(CC(O)C(Cc1ccc(NCc2ccccc2-c2sc3c(c2C(=O)O)CC(C)(C)CC3)cc1)NC(=O)OC1COC2(C)OCCC12)S(=O)(=O)c1ccc(OCF)cc1 (stereo not shown) [Compound I-507] | 1.85 | 1.61
COc1ccc(S(=O)(=O)N(CC(C)C)CC(O)C(Cc2ccc(NCc3cc(-c4sc5c(c4C(=O)O)CC(C)(C)CC5)ccc3C)cc2)NC(=O)OC2COC3(C)OCCC23)cc1 (stereo not shown) [Compound I-550] | 1.75 | 5.29
COc1ccc(S(=O)(=O)N(CC(C)C)CC(O)C(Cc2ccc(N(C)CCOc3ccc(-c4sc5c(c4C(=O)O)CC(C)(C)CC5)c(C)c3)cc2)NC(=O)OC2COC3(C)OCCC23)cc1 (stereo not shown) [Compound I-519] | 8.93 | 0.429
COc1ccc(S(=O)(=O)N(CC(C)C)CC(O)C(Cc2ccc(NCc3ccc4nc(-c5sc6c(c5C(=O)O)CC(C)(C)CC6)sc4c3)cc2)NC(=O)OC2COC3(C)OCCC23)cc1 (stereo not shown) [Compound I-487] | 3.03 | 3.16
COc1ccc(S(=O)(=O)N(CC(C)C)CC(O)C(Cc2ccc(NCc3ccccc3NC(=O)c3sc4c(c3C(=O)O)CC(C)(C)CC4)cc2)NC(=O)OC2COC3(C)OCCC23)cc1 (stereo not shown) [Compound I-574] | 2.93 | 1.01
CC1(C)CCc2sc(NC(=O)c3ccccc3CNc3ccc(CC(NC(=O)OC4COC5(C)OCCC45)C(O)CN(CC4CCC4)S(=O)(=O)c4ccc5c(c4)OCO5)cc3)c(C(=O)O)c2C1 (stereo not shown) [Compound I-613] | 2.55 | 0.0573
